Data published in ChEMBL document CHEMBL1201862, “PubChem BioAssay data set” (2004).
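Results reflect a 48-hour exposure of cells in 96-well plates to compound at five concentrations. GI50 = concentration required for 50% inhibition of growth.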 The source made the active and inactive calls. Cut-off read from the data, not from the text of the source: active = GI50 up to about 1.1 µM and inactive = higher.

Columns and labels:
Test in all cases: NCI-60 cell line screen, 48 h
NCI-H460 = system: NCI-H460
SF-539 = system: SF-539
NCI-H23 = system: NCI-H23
MOLT-4 = system: MOLT-4
RXF 393 = system: RXF 393
SK-MEL-5 = system: SK-MEL-5
SN12C = system: SN12C
SF-268 = system: SF-268
UACC-257 = system: UACC-257
MDA-N = system: MDA-N
OVCAR-5 = system: OVCAR-5
COLO 205 = system: COLO 205
HCT-116 = system: HCT-116
OVCAR-3 = system: OVCAR-3
CCRF-CEM = system: CCRF-CEM
NCI-H226 = system: NCI-H226
OVCAR-8 = system: OVCAR-8
RPMI-8226 = system: RPMI-8226
HOP-62 = system: HOP-62
SK-MEL-28 = system: SK-MEL-28

Measured: GI50

Cn1c(=O)c2c(nc3sc4nc5ccccc5nc4n32)n(C)c1=O
inactive: NCI-H460 > 100 µM | SF-539 > 100 µM | NCI-H23 > 100 µM | MOLT-4 > 100 µM | RXF 393 > 100 µM | SK-MEL-5 32.7 µM | SN12C 85.9 µM | SF-268 > 100 µM | UACC-257 > 100 µM | MDA-N > 100 µM | OVCAR-5 > 100 µM | COLO 205 > 100 µM | HCT-116 > 100 µM | OVCAR-3 > 100 µM | CCRF-CEM > 100 µM | NCI-H226 > 100 µM | OVCAR-8 > 100 µM | RPMI-8226 > 100 µM

COC(=O)C1[C@H](C(=O)OC)C1(Br)CBr (some centres not stated)
inactive: NCI-H460 > 100 µM | SF-539 > 100 µM | HOP-62 > 100 µM | NCI-H23 > 100 µM | MOLT-4 40.1 µM | RXF 393 > 100 µM | SK-MEL-5 > 100 µM | SN12C > 100 µM | SF-268 > 100 µM | UACC-257 > 100 µM | MDA-N > 100 µM | OVCAR-5 > 100 µM | COLO 205 > 100 µM | HCT-116 > 100 µM | OVCAR-3 > 100 µM | NCI-H226 > 100 µM | OVCAR-8 > 100 µM | SK-MEL-28 > 100 µM | RPMI-8226 > 100 µM

CC(C)(Br)C(Br)CCC(C)(Br)C(Br)CO (configuration not stated)
inactive: SF-539 > 10 µM | HOP-62 > 10 µM | NCI-H23 > 10 µM | MOLT-4 > 10 µM | RXF 393 > 10 µM | SK-MEL-5 > 10 µM | SN12C > 10 µM | SF-268 > 10 µM | UACC-257 > 10 µM | MDA-N > 10 µM | COLO 205 > 10 µM | HCT-116 > 10 µM | OVCAR-3 > 10 µM | CCRF-CEM > 10 µM | NCI-H226 > 10 µM | OVCAR-8 > 10 µM | SK-MEL-28 > 10 µM | RPMI-8226 > 10 µM

O=C1c2ccccc2CCC1C(O)(C(F)(F)F)C(F)(F)F (configuration not stated)
inactive: NCI-H460 > 100 µM | SF-539 > 100 µM | NCI-H23 > 100 µM | MOLT-4 44.6 µM | RXF 393 93.8 µM | SK-MEL-5 49.2 µM | UACC-257 > 100 µM | MDA-N > 100 µM | OVCAR-5 > 100 µM | COLO 205 > 100 µM | HCT-116 > 100 µM | OVCAR-3 > 100 µM | CCRF-CEM > 100 µM | NCI-H226 > 100 µM | OVCAR-8 > 100 µM | SK-MEL-28 > 100 µM | RPMI-8226 > 100 µM
